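Results reflect a 48-hour exposure of cells in 96-well plates to compound at five concentrations. TGI is the concentration that stops growth completely.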
Key:
Assay in all cases: inhibition of tumour cell growth, NCI panel, 48 h
[1] = tested on: UO-31 renal
[2] = tested on: LOX IMVI melanoma
[3] = tested on: HOP-92 NSCLC
[4] = tested on: MDA-MB-231 breast
[5] = tested on: MDA-MB-435
[6] = tested on: K-562 leukemia
[7] = tested on: RPMI-8226 leukemia
[8] = tested on: MOLT-4 leukemia
[9] = tested on: HCT-15 colon
[10] = tested on: OVCAR-5 ovarian
[11] = tested on: KM12 colon
[12] = tested on: SK-MEL-28 melanoma
[13] = tested on: SNB-19 CNS
[14] = tested on: PC-3 prostate
[15] = tested on: T-47D breast
[16] = tested on: SW-620 colon
[17] = tested on: SR leukemia
[18] = tested on: HCC-2998 colon
[19] = tested on: SF-295 CNS
[20] = tested on: HT29 colon
[21] = tested on: NCI-H460 lung
[22] = tested on: 786-0 renal
[23] = tested on: SK-MEL-2 melanoma
[24] = tested on: SNB-75 CNS
[25] = tested on: RXF 393 renal
[26] = tested on: SK-MEL-5 melanoma
[27] = tested on: MDA-N
[28] = tested on: UACC-62 melanoma
[29] = tested on: ACHN renal
[30] = tested on: U251 CNS
[31] = tested on: OVCAR-8 ovarian
[32] = tested on: UACC-257 melanoma
[33] = tested on: DU-145 prostate
[34] = tested on: HL-60(TB) leukemia
[35] = tested on: COLO 205 colon
[36] = tested on: NCI/ADR-RES ovarian
[37] = tested on: CAKI-1 renal
[38] = tested on: NCI-H23 lung
[39] = tested on: M14 melanoma
[40] = tested on: TK-10 renal
[41] = tested on: CCRF-CEM leukemia
[42] = tested on: EKVX NSCLC
[43] = tested on: HOP-62 NSCLC
[44] = tested on: A549 NSCLC
[45] = tested on: OVCAR-4 ovarian
[46] = tested on: IGROV1 ovarian
[47] = tested on: NCI-H226 lung
[48] = tested on: A498 renal
[49] = tested on: OVCAR-3 ovarian
[50] = tested on: SF-539 CNS
[51] = tested on: MALME-3M melanoma
[52] = tested on: HS 578T breast
[53] = tested on: MCF7 breast
[54] = tested on: SF-268 CNS
[55] = tested on: NCI-H522 lung
[56] = tested on: SK-OV-3 ovarian

## CCCC[C@@H](C)/C=C1\CN2CCC[C@H]2[C@@](C)(O)[C@@H]1O
[1]
  TGI: > 100 µM
[2]
  TGI: > 100 µM
[3]
  TGI: 73.6 µM
[4]
  TGI: > 100 µM
[5]
  TGI: > 100 µM
[6]
  TGI: > 100 µM
[7]
  TGI: > 100 µM
[8]
  TGI: > 100 µM
[9]
  TGI: > 100 µM
[10]
  TGI: > 100 µM
[11]
  TGI: > 100 µM
[12]
  TGI: > 100 µM
[13]
  TGI: > 100 µM
[14]
  TGI: > 100 µM
[15]
  TGI: > 100 µM
[16]
  TGI: > 100 µM
[17]
  TGI: > 100 µM
[18]
  TGI: > 100 µM
[19]
  TGI: > 100 µM
[20]
  TGI: > 100 µM
[21]
  TGI: > 100 µM
[22]
  TGI: > 100 µM
[23]
  TGI: > 100 µM
[24]
  TGI: 85.1 µM
[25]
  TGI: 38.1 µM
[26]
  TGI: > 100 µM
[27]
  TGI: > 100 µM
[28]
  TGI: > 100 µM
[29]
  TGI: > 100 µM
[30]
  TGI: > 100 µM
[31]
  TGI: > 100 µM
[32]
  TGI: > 100 µM
[33]
  TGI: 60.4 µM
[34]
  TGI: 11 µM
[35]
  TGI: > 100 µM
[36]
  TGI: > 100 µM
[37]
  TGI: 71.2 µM
[38]
  TGI: > 100 µM
[39]
  TGI: > 100 µM
[40]
  TGI: > 100 µM
[41]
  TGI: > 100 µM
[42]
  TGI: > 100 µM
[43]
  TGI: > 100 µM
[44]
  TGI: > 100 µM
[45]
  TGI: > 100 µM
[46]
  TGI: > 100 µM
[47]
  TGI: > 100 µM
[48]
  TGI: > 100 µM
[49]
  TGI: > 100 µM
[50]
  TGI: > 100 µM
[51]
  TGI: > 100 µM
[52]
  TGI: > 100 µM
[53]
  TGI: > 100 µM
[54]
  TGI: > 100 µM
[55]
  TGI: > 100 µM
[56]
  TGI: > 100 µM

Source: PubChem BioAssay (NCI)
